“And” between values parts separate entries of the source, which are not always exact repeats. Equal entries are not always repeated. Where two headings read alike, the source gives them in different places.
Columns and labels:
[1] = test system: DiMT protein; type: biochemical, Dirofilaria immitis
[2] = test system: mammalian cells; conditions: read-out: Cytotoxicity IC50, ref Zhang et al., [30]; cited from earlier work
[3] = test system: D. immitis microfilariae; assay: In vitro efficacy against live D. immitis microfilariae (motility, completely immotile %); type: cell-based, Dirofilaria immitis; conditions: for Completely Immotile Microfilariae (%): single experiments

CO[C@@H]1/C=C\O[C@]2(C)Oc3c(C)c(O)c4c(O)c(c(CN(C)C)c(O)c4c3C2=O)NC(=O)/C(C)=C\C=C[C@@H](C)[C@@H](O)[C@H](C)[C@@H](O)[C@H](C)[C@H](OC(C)=O)[C@@H]1C [NSC145612]
Mean Percent Inhibition ([1]; 50 µM): 68.4% and 38.5% and 36.2% | Mean Percent Inhibition, Average ([1]; 50 µM): 47.7% | Mean Percent Inhibition ([1]; 100 µM): 57.6% and 50.0% and 61.2% | Mean Percent Inhibition, Average ([1]; 100 µM): 56.3% | Mean Percent Inhibition ([1]; 150 µM): 66.2% and 62.4% and 82.9% | Mean Percent Inhibition, Average ([1]; 150 µM): 70.5% | Mean Percent Inhibition ([1]; 200 µM): 77.2% and 75.4% and 75.6% | Mean Percent Inhibition, Average ([1]; 200 µM): 76.1% | Mean Percent Inhibition ([1]; 250 µM): 84.0% and 87.6% and 81.7% | Mean Percent Inhibition, Average ([1]; 250 µM): 84.4% | IC50 ([1]; read-out: IC 50 (μM ± SEM)): 62.1 ± 1.8 µM | IC50 [2]: 302 µM | Mean completely Immotile (%) ([3]; 25 µM, 0 h): 0% | Mean completely Immotile (%) ([3]; 25 µM, 24 h): 4.67% | Mean completely Immotile (%) ([3]; 25 µM, 48 h): 10.17% | Mean completely Immotile (%) ([3]; 25 µM, 72 h): 25% | Mean completely Immotile (%) ([3]; 25 µM, 96 h): 38.33% | Mean completely Immotile (%) ([3]; 25 µM, 120 h): 48.67% | Mean completely Immotile (%) ([3]; 50 µM, 0 h): 0% | Mean completely Immotile (%) ([3]; 50 µM, 24 h): 12% | Mean completely Immotile (%) ([3]; 50 µM, 48 h): 26.33% | Mean completely Immotile (%) ([3]; 50 µM, 72 h): 43.33% | Mean completely Immotile (%) ([3]; 50 µM, 96 h): 64% | Mean completely Immotile (%) ([3]; 75 µM, 0 h): 0% | Mean completely Immotile (%) ([3]; 75 µM, 24 h): 24.33% | Mean completely Immotile (%) ([3]; 75 µM, 48 h): 87.33% | Mean completely Immotile (%) ([3]; 75 µM, 72 h): 96.67% | Mean completely Immotile (%) ([3]; 75 µM, 96 h): 100% | Mean completely Immotile (%) ([3]; 75 µM, 120 h): 100% | Mean completely Immotile (%) ([3]; 100 µM, 0 h): 0% | Mean completely Immotile (%) ([3]; 100 µM, 24 h): 55.33% | Mean completely Immotile (%) ([3]; 100 µM, 48 h): 94.33% | Mean completely Immotile (%) ([3]; 100 µM, 72 h): 100% | Mean completely Immotile (%) ([3]; 100 µM, 96 h): 100% | Mean completely Immotile (%) ([3]; 100 µM, 120 h): 100% | EC50 ([3]; 96 h post-treatment, read-out: Anti-parasitic EC50): 32.2 µM | Completely Immotile Microfilariae (%) ([3]; 25 µM, 0 h): 0% | Completely Immotile Microfilariae (%) ([3]; 25 µM, 24 h): 5% and 3% and 6% | Completely Immotile Microfilariae (%) ([3]; 25 µM, 48 h): 10% and 8% and 12.5% | Completely Immotile Microfilariae (%) ([3]; 25 µM, 72 h): 28% and 22% and 25% | Completely Immotile Microfilariae (%) ([3]; 25 µM, 96 h): 41% and 36% and 38% and 50% | Completely Immotile Microfilariae (%) ([3]; 25 µM, 120 h): 50% and 44% and 52% | Completely Immotile Microfilariae (%) ([3]; 50 µM, 0 h): 0% | Completely Immotile Microfilariae (%) ([3]; 50 µM, 24 h): 10% and 12% and 14% | Completely Immotile Microfilariae (%) ([3]; 50 µM, 48 h): 25% and 23% and 31% | Completely Immotile Microfilariae (%) ([3]; 50 µM, 72 h): 40% and 44% and 46% | Completely Immotile Microfilariae (%) ([3]; 50 µM, 96 h): 60% and 64% and 68% and 100% | Completely Immotile Microfilariae (%) ([3]; 50 µM, 120 h): 100% | Completely Immotile Microfilariae (%) ([3]; 75 µM, 0 h): 0% | Completely Immotile Microfilariae (%) ([3]; 75 µM, 24 h): 21% and 28% and 24% | Completely Immotile Microfilariae (%) ([3]; 75 µM, 48 h): 85% and 90% and 87% | Completely Immotile Microfilariae (%) ([3]; 75 µM, 72 h): 95% and 97% and 98% | Completely Immotile Microfilariae (%) ([3]; 75 µM, 96 h): 100% | Completely Immotile Microfilariae (%) ([3]; 75 µM, 120 h): 100% | Completely Immotile Microfilariae (%) ([3]; 100 µM, 0 h): 0% | Completely Immotile Microfilariae (%) ([3]; 100 µM, 24 h): 50% and 56% and 60% | Completely Immotile Microfilariae (%) ([3]; 100 µM, 48 h): 93% and 95% | Completely Immotile Microfilariae (%) ([3]; 100 µM, 72 h): 100% | Completely Immotile Microfilariae (%) ([3]; 100 µM, 96 h): 100% | Completely Immotile Microfilariae (%) ([3]; 100 µM, 120 h): 100% | effect on microfilariae ([3]; up to 120 h of culture): killing effect

— article PMC11392244, “Characterization of a unique catechol-O-methyltransferase as a molecular drug target in parasitic filarial nematodes” (PLOS Neglected Tropical Diseases, 2024)
